ChEMBL document CHEMBL1201862, “PubChem BioAssay data set” (2004)
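Assay format: 96-well plates, 48-hour exposure. GI50 is the concentration that inhibits growth by half.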 Activity calls are given as the source filed them. Rule as the data show it: active = GI50 up to about 1.1 µM and inactive = higher.

What was measured:
Assay in all cases: inhibition of tumour cell growth, NCI panel, 48 h
786-0 = tested on: 786-0
CAKI-1 = tested on: CAKI-1
COLO 205 = tested on: COLO 205
HCT-15 = tested on: HCT-15
IGROV-1 = tested on: IGROV-1
M14 = tested on: M14
MCF7 = tested on: MCF7
MDA-MB-231 = tested on: MDA-MB-231
MOLT-4 = tested on: MOLT-4
Malme-3M = tested on: Malme-3M
OVCAR-8 = tested on: OVCAR-8
SF-268 = tested on: SF-268
SK-MEL-28 = tested on: SK-MEL-28
SNB-75 = tested on: SNB-75
T47D = tested on: T47D
UO-31 = tested on: UO-31
A498 = tested on: A498
HL-60 = tested on: HL-60
NCI-H226 = tested on: NCI-H226

O=C1C=Cc2c1csc2Br
GI50 (786-0): 25.8 µM (inactive)
GI50 (CAKI-1): > 100 µM (inactive)
GI50 (COLO 205): 64.7 µM (inactive)
GI50 (HCT-15): 28.6 µM
GI50 (IGROV-1): 38.3 µM (inactive)
GI50 (M14): 19.1 µM (inactive)
GI50 (MCF7): 24.9 µM (inactive)
GI50 (MDA-MB-231): 91.8 µM (inactive)
GI50 (MOLT-4): 21.3 µM (inactive)
GI50 (Malme-3M): 38.1 µM (inactive)
GI50 (OVCAR-8): 38.2 µM (inactive)
GI50 (SF-268): 86.9 µM (inactive)
GI50 (SK-MEL-28): 63.1 µM (inactive)
GI50 (SNB-75): > 100 µM (inactive)
GI50 (T47D): 54.5 µM (inactive)
GI50 (UO-31): 24.2 µM (inactive)

C1C2CC3CC1CC(c1nn4c(C56CC7CC(CC(C7)C5)C6)nnc4s1)(C2)C3
GI50 (786-0): > 100 µM (inactive)
GI50 (A498): > 100 µM (inactive)
GI50 (CAKI-1): > 100 µM (inactive)
GI50 (COLO 205): > 100 µM (inactive)
GI50 (HCT-15): > 100 µM
GI50 (HL-60): > 100 µM (inactive)
GI50 (IGROV-1): > 100 µM (inactive)
GI50 (M14): > 100 µM (inactive)
GI50 (MDA-MB-231): > 100 µM (inactive)
GI50 (MOLT-4): > 100 µM (inactive)
GI50 (Malme-3M): > 100 µM (inactive)
GI50 (NCI-H226): > 100 µM (inactive)
GI50 (SF-268): > 100 µM (inactive)
GI50 (SK-MEL-28): > 100 µM (inactive)
GI50 (SNB-75): > 100 µM (inactive)
GI50 (T47D): > 100 µM (inactive)
GI50 (UO-31): > 100 µM (inactive)

CSCCCNC(=O)c1csc(-c2csc(CCNC(=O)CNC(=O)OC(C)(C)C)n2)n1
GI50 (786-0): > 100 µM (inactive)
GI50 (A498): > 100 µM (inactive)
GI50 (CAKI-1): > 100 µM (inactive)
GI50 (COLO 205): > 100 µM (inactive)
GI50 (HCT-15): > 100 µM
GI50 (IGROV-1): > 100 µM (inactive)
GI50 (M14): > 100 µM (inactive)
GI50 (MCF7): 46.6 µM (inactive)
GI50 (MDA-MB-231): > 100 µM (inactive)
GI50 (MOLT-4): 40.7 µM (inactive)
GI50 (Malme-3M): > 100 µM (inactive)
GI50 (NCI-H226): > 100 µM (inactive)
GI50 (OVCAR-8): > 100 µM (inactive)
GI50 (SF-268): > 100 µM (inactive)
GI50 (SK-MEL-28): > 100 µM (inactive)
GI50 (SNB-75): > 100 µM (inactive)
GI50 (UO-31): > 100 µM (inactive)

CN(C)CCNC(=O)c1cccc2c1Oc1c(cccc1[N+](=O)[O-])O2
GI50 (786-0): 0.564 µM (active)
GI50 (A498): 1.37 µM (inactive)
GI50 (CAKI-1): 0.297 µM (active)
GI50 (COLO 205): 1.87 µM (inactive)
GI50 (HCT-15): 0.544 µM
GI50 (HL-60): 0.306 µM (active)
GI50 (IGROV-1): 1.56 µM (inactive)
GI50 (M14): 2.64 µM (inactive)
GI50 (MCF7): 0.957 µM (active)
GI50 (MOLT-4): 0.298 µM (active)
GI50 (Malme-3M): 1.33 µM (inactive)
GI50 (NCI-H226): 0.288 µM (active)
GI50 (OVCAR-8): 1.71 µM (inactive)
GI50 (SF-268): 2.97 µM (inactive)
GI50 (SK-MEL-28): 2.02 µM (inactive)
GI50 (SNB-75): 1.24 µM (inactive)
GI50 (T47D): 0.323 µM (active)
GI50 (UO-31): 0.885 µM (active)

Cc1cc(C23OC4COC(C)(C)OC4C2OC(C)(C)O3)nc2ccccc12 (stereo unspecified)
GI50 (786-0): > 100 µM (inactive)
GI50 (COLO 205): > 100 µM (inactive)
GI50 (HCT-15): > 100 µM
GI50 (HL-60): 33.4 µM (inactive)
GI50 (IGROV-1): 31.3 µM (inactive)
GI50 (M14): > 100 µM (inactive)
GI50 (MCF7): > 100 µM (inactive)
GI50 (MDA-MB-231): > 100 µM (inactive)
GI50 (MOLT-4): 25.5 µM (inactive)
GI50 (Malme-3M): > 100 µM (inactive)
GI50 (NCI-H226): > 100 µM (inactive)
GI50 (OVCAR-8): > 100 µM (inactive)
GI50 (SF-268): > 100 µM (inactive)
GI50 (SK-MEL-28): > 100 µM (inactive)
GI50 (SNB-75): > 100 µM (inactive)
GI50 (T47D): > 100 µM (inactive)
GI50 (UO-31): > 100 µM (inactive)

N#Cc1c(-c2ccco2)cc(-c2ccc(N)cc2)[nH]c1=O
GI50 (786-0): > 100 µM (inactive)
GI50 (A498): > 100 µM (inactive)
GI50 (HCT-15): > 100 µM
GI50 (HL-60): > 100 µM (inactive)
GI50 (IGROV-1): > 100 µM (inactive)
GI50 (M14): > 100 µM (inactive)
GI50 (MOLT-4): > 100 µM (inactive)
GI50 (Malme-3M): > 100 µM (inactive)
GI50 (NCI-H226): > 100 µM (inactive)
GI50 (OVCAR-8): > 100 µM (inactive)
GI50 (SF-268): > 100 µM (inactive)
GI50 (SK-MEL-28): > 100 µM (inactive)
GI50 (SNB-75): > 100 µM (inactive)
GI50 (UO-31): > 100 µM (inactive)

COC(=O)/C=C\n1c(C)cc(=O)[nH]c1=O
GI50 (786-0): > 100 µM (inactive)
GI50 (A498): > 100 µM (inactive)
GI50 (COLO 205): > 100 µM (inactive)
GI50 (HCT-15): > 100 µM
GI50 (IGROV-1): > 100 µM (inactive)
GI50 (M14): > 100 µM (inactive)
GI50 (MCF7): 17.1 µM (inactive)
GI50 (MOLT-4): > 100 µM (inactive)
GI50 (Malme-3M): > 100 µM (inactive)
GI50 (NCI-H226): > 100 µM (inactive)
GI50 (OVCAR-8): > 100 µM (inactive)
GI50 (SF-268): > 100 µM (inactive)
GI50 (SK-MEL-28): > 100 µM (inactive)
GI50 (SNB-75): 58.2 µM (inactive)
GI50 (T47D): > 100 µM (inactive)
GI50 (UO-31): > 100 µM (inactive)

COc1ccc(C2=C[C@]3(O)CCCN3C[C@@H]2c2ccc(OC)c(OC)c2)cc1
GI50 (786-0): < 0.0001 µM (active)
GI50 (A498): < 0.0001 µM (active)
GI50 (CAKI-1): < 0.0001 µM (active)
GI50 (COLO 205): < 0.0001 µM (active)
GI50 (HCT-15): < 0.0001 µM
GI50 (HL-60): < 0.0001 µM (active)
GI50 (IGROV-1): < 0.0001 µM (active)
GI50 (M14): < 0.0001 µM (active)
GI50 (MOLT-4): < 0.0001 µM (active)
GI50 (Malme-3M): < 0.0001 µM (active)
GI50 (NCI-H226): < 0.0001 µM (active)
GI50 (OVCAR-8): < 0.0001 µM (active)
GI50 (SF-268): < 0.0001 µM (active)
GI50 (SK-MEL-28): < 0.0001 µM (active)
GI50 (SNB-75): < 0.0001 µM (active)
GI50 (UO-31): < 0.0001 µM (active)

CCOC(=O)c1cc(I)c(-c2cc(C)no2)n1C
GI50 (786-0): 43.5 µM (inactive)
GI50 (A498): 23.7 µM (inactive)
GI50 (CAKI-1): 20.3 µM (inactive)
GI50 (COLO 205): 42.4 µM (inactive)
GI50 (HCT-15): 49.9 µM
GI50 (HL-60): 26.1 µM (inactive)
GI50 (M14): 94 µM (inactive)
GI50 (MDA-MB-231): 36 µM (inactive)
GI50 (MOLT-4): 21.2 µM (inactive)
GI50 (Malme-3M): 28.1 µM (inactive)
GI50 (NCI-H226): > 100 µM (inactive)
GI50 (OVCAR-8): 59 µM (inactive)
GI50 (SF-268): 60.1 µM (inactive)
GI50 (SK-MEL-28): > 100 µM (inactive)
GI50 (SNB-75): 49.8 µM (inactive)
GI50 (T47D): 32.2 µM (inactive)
GI50 (UO-31): 37.9 µM (inactive)

Nc1ccc2nc(-c3cccc(C(F)(F)F)c3)cc(O)c2c1
GI50 (786-0): 44.7 µM (inactive)
GI50 (A498): 29.1 µM (inactive)
GI50 (CAKI-1): 29.6 µM (inactive)
GI50 (COLO 205): 27.2 µM (inactive)
GI50 (HCT-15): 34.8 µM
GI50 (IGROV-1): 33.5 µM (inactive)
GI50 (M14): 59.6 µM (inactive)
GI50 (MCF7): 28.2 µM (inactive)
GI50 (MDA-MB-231): 50.7 µM (inactive)
GI50 (MOLT-4): 40.4 µM (inactive)
GI50 (Malme-3M): 40.6 µM (inactive)
GI50 (OVCAR-8): 47 µM (inactive)
GI50 (SK-MEL-28): 53.5 µM (inactive)
GI50 (SNB-75): 27.3 µM (inactive)
GI50 (UO-31): 37.4 µM (inactive)

CC1=NN2C=Nc3c(c(-c4ccc(Cl)cc4)cn3-c3ccc(C)cc3)C2N1 (stereo unspecified)
GI50 (786-0): 19.5 µM (inactive)
GI50 (A498): > 100 µM (inactive)
GI50 (CAKI-1): 97.3 µM (inactive)
GI50 (COLO 205): > 100 µM (inactive)
GI50 (HCT-15): > 100 µM
GI50 (HL-60): > 100 µM (inactive)
GI50 (IGROV-1): 76.6 µM (inactive)
GI50 (M14): > 100 µM (inactive)
GI50 (MCF7): > 100 µM (inactive)
GI50 (MDA-MB-231): 71.1 µM (inactive)
GI50 (Malme-3M): > 100 µM (inactive)
GI50 (NCI-H226): > 100 µM (inactive)
GI50 (OVCAR-8): 29.9 µM (inactive)
GI50 (SF-268): 71.1 µM (inactive)
GI50 (SK-MEL-28): > 100 µM (inactive)
GI50 (SNB-75): 30.5 µM (inactive)
GI50 (UO-31): > 100 µM (inactive)

OC(Cc1cccc2ccccc12)CN1CCC(c2ccccc2)CC1 (stereo unspecified)
GI50 (786-0): 15 µM (inactive)
GI50 (CAKI-1): 11.1 µM (inactive)
GI50 (COLO 205): 13 µM (inactive)
GI50 (HCT-15): 14.5 µM
GI50 (HL-60): 16.7 µM (inactive)
GI50 (M14): 13.8 µM (inactive)
GI50 (MCF7): 17.3 µM (inactive)
GI50 (MDA-MB-231): 14.2 µM (inactive)
GI50 (OVCAR-8): 16.8 µM (inactive)
GI50 (SF-268): 14.4 µM (inactive)
GI50 (SK-MEL-28): 13.4 µM (inactive)
GI50 (SNB-75): 12.3 µM (inactive)
GI50 (T47D): 14.3 µM (inactive)
GI50 (UO-31): 0.0241 µM (active)

C[C@@H]1CC[C@@H](C)[C@](C)(CCc2ccoc2)C/C=C\C=C/1C(=O)O
GI50 (786-0): > 50 µM (inactive)
GI50 (A498): > 50 µM (inactive)
GI50 (CAKI-1): > 50 µM (inactive)
GI50 (COLO 205): > 50 µM (inactive)
GI50 (HCT-15): > 50 µM
GI50 (HL-60): 15.3 µM (inactive)
GI50 (IGROV-1): > 50 µM (inactive)
GI50 (M14): > 50 µM (inactive)
GI50 (MCF7): > 50 µM (inactive)
GI50 (MDA-MB-231): > 50 µM (inactive)
GI50 (MOLT-4): 31.8 µM (inactive)
GI50 (Malme-3M): > 50 µM (inactive)
GI50 (NCI-H226): > 50 µM (inactive)
GI50 (OVCAR-8): > 50 µM (inactive)
GI50 (SK-MEL-28): > 50 µM (inactive)
GI50 (SNB-75): > 50 µM (inactive)
GI50 (UO-31): > 50 µM (inactive)
